We go through five compounds from ChEMBL document CHEMBL1142127, “Neuroprotective principles from Gastrodia elata” (J Nat Prod, 2007).

Test [1] deals with PC-12. The test is described as follows: Prevention of serum deprivation-induced PC12 cell apoptosis at 100 uM by MTT assay. The test is classed as functional, Rattus norvegicus.
Test [2] has as its system PC-12. Briefly: Prevention of serum deprivation-induced PC12 cell apoptosis by MTT assay. Type of test: functional, cell-based. The settings on record: Rattus norvegicus.
The target in the next test is Adenosine receptor A2a (Rattus norvegicus, UniProt P30543). The test is described as follows: Binding affinity to adenosine A2A receptor in rat brain striatum. Type of test: tissue-based.
Test [3] relates to PC-12. The test is described as follows: Prevention of serum deprivation-induced PC12 cell apoptosis at > 100 uM by MTT assay. The test is classed as functional, cell-based. The settings on record: Rattus norvegicus.

Activity calls are given as the source filed them. No cut-off for these calls is given here.

Sequence of Adenosine receptor A2a (P30543 whole entry): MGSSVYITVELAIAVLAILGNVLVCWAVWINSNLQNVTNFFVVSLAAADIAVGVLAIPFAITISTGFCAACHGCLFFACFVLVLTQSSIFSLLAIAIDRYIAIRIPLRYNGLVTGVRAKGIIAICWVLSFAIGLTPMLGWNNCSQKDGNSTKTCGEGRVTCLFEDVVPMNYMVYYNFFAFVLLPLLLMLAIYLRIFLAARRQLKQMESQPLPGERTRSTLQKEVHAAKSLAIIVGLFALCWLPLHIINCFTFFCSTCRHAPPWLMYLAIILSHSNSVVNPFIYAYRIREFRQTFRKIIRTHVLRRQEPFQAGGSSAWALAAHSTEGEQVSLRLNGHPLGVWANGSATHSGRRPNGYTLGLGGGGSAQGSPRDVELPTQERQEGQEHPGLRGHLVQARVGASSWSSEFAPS

`Nc1ncnc2c1ncn2[C@@H]1O[C@H](CO)[C@@H](O)[C@H]1O` [ADENOSINE] returned an Activity in the test on PC-12 [1] of 80%. The EC50 is the concentration giving half of the maximal effect. A higher EC50 goes with a need for much substance. As usually defined, the IC50 is the concentration at which inhibition is half-maximal. A higher IC50 goes with a need for much substance. A word on the Ki: it is a measure of affinity in units of concentration, obtained from inhibition or displacement. Low readings indicate higher affinity, high ones lower affinity. The compound `Oc1ccc(CSCc2ccc(O)cc2)cc1` yielded a concentration giving a half-maximal response (EC50) with PC-12 [2] of 7.2 µM. For the same compound, at Adenosine receptor A2a, the IC50 turned out to be 42.9 µM and affinity was put at a Ki of 24.1 µM. Take `C[C@H]1O[C@@H](Oc2ccc(COC(=O)CC(O)(CC(=O)OCc3ccc(O[C@@H]4O[C@H](CO)[C@@H](O)[C@H](O)[C@H]4O)cc3)C(=O)Oc3ccc(O[C@H]4O[C@H](CO)[C@@H](O)[C@H](O)[C@H]4O)cc3)cc2)[C@H](O)[C@@H](O)[C@@H]1O` (some centres undefined): in the test on PC-12 [3], the outcome was inactive. As for `OCc1ccc(O[C@@H]2O[C@H](CO)[C@@H](O)[C@H](O)[C@H]2O)cc1`, the result with PC-12 [3] was inactive. The compound `OC[C@H]1O[C@@H](n2cnc3c(NCc4ccc(O)cc4)ncnc32)[C@H](O)[C@@H]1O` gave an EC50 in the test on PC-12 [2] of 0.037 µM. On Adenosine receptor A2a, this compound returned a half-maximal inhibitory concentration (IC50) of 4.66 µM and a Ki of 2.62 µM.
